Values quoted from earlier work, collected in patent US20070071809A1, “Ginger containing compositions to control pain” (priority 2005, published 2007).

Test system: osteoarthritis of the knee
Conditions: 1500 mg per day

N[C@H]1C(O)O[C@H](CO)[C@@H](O)[C@@H]1O (some centres unmarked) [Glucosamine]
knee pain in patients with osteoarthritis of the knee (212 patients, half glucosamine, half placebo): reduce knee pain | pain scores versus placebo group (placebo group had worsened pain scores): statistically improved pain scores
